Test results: PMC11249239 (PLOS ONE, 2024)
Read-outs that look alike come from different tables or passages of the source.

What was measured:
p53 = test: Western blot of nuclear extracts, p53 expression; type: cell-based; conditions: 1 μM, time course
Source text: (§1) Following treatment of cells with SP-1-303 over a time course, total or nuclear proteins were extracted and analyzed on 4–20% trisglycine gradient sodium dodecyl sulfate polyacrylamide gel electrophoresis (SDS-PAGE). Subsequently, membranes were probed with antibodies targeting specific proteins in accordance with the manufacturers’ protocols, including ATM (ab78), p-BRCA1 (ab90528), BRCA1 (ab191042), p-p53/S15 (ab1431), acetylated H3K9 (ab12179) from Abcam, as well as p-ATM (# 5883) and p53 (#9282) from Cell Signaling, α-tubulin (T6793) and β-actin (A3854) from Sigma-Aldrich, ER-α (cat# MA1-80216, Invitrogen) and HDAC2 (BML-SA402. Enzo). Protein images were captured using ECL Prime Western Blotting Detection Reagents (Cat#. RPN2232, Amersham) and the Amersham Imager 600. For immunofluorescent analysis, formalin fixed cells were permeabilized with 0.1% Triton X-100 in TBS for 10 minutes at room temperature, followed by blocking with 1% Blocker BSA for 15 minutes at room temperature. Cells were then probed with a phospho-ATM monoclonal antibody (MA5-15185) and DyLight 488 goat anti-mouse IgG secondary antibody at room temperature. Actin was stained with DyLight 554 phalloidin, while nuclei were stained with 4’,6-diamidino-2-phenylindole dye (DAPI). Images were captured using a Nikon Epi Fluorescent microscopy.

HCC-1937 (TNB) cells = test: Cell growth inhibition (CCK8 cytotoxicity assay), HCC-1937; type: cell-based; conditions: 48 h treatment, read-out: Average EC50 ± SD, cell growth inhibition
MCF7 (ER+) cells = test: Cell growth inhibition (CCK8 cytotoxicity assay), MCF7; type: cell-based; conditions: Homo sapiens, 48 h treatment, read-out: Average EC50 ± SD, cell growth inhibition
T47D (ER+) cells = test: Cell growth inhibition (CCK8 cytotoxicity assay), T47D; type: cell-based; conditions: 48 h treatment, read-out: Average EC50 ± SD, cell growth inhibition
[1] = test system: triple negative breast cancer cells; test: Cell growth inhibition, triple negative breast cancer cells stated together; type: cell-based; conditions: range over triple negative breast cancer cells; read-out: effective growth inhibition concentrations (EC50)
Source text: (§2) Prism-GraphPad software was used to analyze data.

[2] = test system: ER+ BC cells (MCF-7 and T47D); test: Cell growth inhibition, ER+ breast cancer cells stated together; type: cell-based
Source text: as §2

acetylated α-tubulin = test: Western blot, acetylation of α-tubulin; type: cell-based; conditions: MCF7 and MDA-MB-231; 1 μM; time dependent
Source text: as §1

ER-α = test: Western blot of nuclear extracts, ER-α expression; type: cell-based; conditions: MCF7; 1 μM; from 2h to 6h
Source text: as §1

HDAC4 = HDAC4 (Homo sapiens, UniProt P56524); test: HDAC4 activity inhibition (data not shown); type: biochemical; conditions: read-out: IC50 class IIa HDAC4 inhibition
Sequence of HDAC4 (P56524 whole entry, species assumed): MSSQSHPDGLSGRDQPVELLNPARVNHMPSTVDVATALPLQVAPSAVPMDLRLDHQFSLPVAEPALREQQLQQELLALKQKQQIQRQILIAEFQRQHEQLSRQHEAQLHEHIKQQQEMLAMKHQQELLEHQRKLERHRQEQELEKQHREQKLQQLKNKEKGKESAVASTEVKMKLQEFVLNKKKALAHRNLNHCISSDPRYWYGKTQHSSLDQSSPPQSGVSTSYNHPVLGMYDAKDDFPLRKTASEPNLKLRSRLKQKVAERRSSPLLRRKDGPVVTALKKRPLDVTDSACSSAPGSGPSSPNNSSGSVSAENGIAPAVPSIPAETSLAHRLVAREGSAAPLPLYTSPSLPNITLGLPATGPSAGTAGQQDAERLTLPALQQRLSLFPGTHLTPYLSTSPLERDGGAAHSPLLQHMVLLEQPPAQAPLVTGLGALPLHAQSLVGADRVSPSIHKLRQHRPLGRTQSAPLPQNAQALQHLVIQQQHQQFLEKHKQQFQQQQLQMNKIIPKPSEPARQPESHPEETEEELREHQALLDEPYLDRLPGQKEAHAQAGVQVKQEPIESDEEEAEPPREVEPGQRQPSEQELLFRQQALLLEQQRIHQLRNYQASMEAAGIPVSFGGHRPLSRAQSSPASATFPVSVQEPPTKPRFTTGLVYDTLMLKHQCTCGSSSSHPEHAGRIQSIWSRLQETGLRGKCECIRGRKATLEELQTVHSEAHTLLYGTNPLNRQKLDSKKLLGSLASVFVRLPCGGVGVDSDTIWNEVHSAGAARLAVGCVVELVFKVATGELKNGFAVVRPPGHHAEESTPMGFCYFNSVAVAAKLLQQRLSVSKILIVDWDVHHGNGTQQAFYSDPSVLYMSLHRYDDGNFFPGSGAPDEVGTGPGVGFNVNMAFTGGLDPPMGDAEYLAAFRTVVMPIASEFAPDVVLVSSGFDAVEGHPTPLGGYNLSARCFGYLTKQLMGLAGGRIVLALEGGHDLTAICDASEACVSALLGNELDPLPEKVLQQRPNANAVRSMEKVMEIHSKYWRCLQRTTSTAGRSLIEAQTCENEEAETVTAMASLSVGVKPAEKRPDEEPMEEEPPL

Compound: Cc1[nH]c2ccccc2c1C1=C(c2c(C)[nH]c3ccccc23)C(=O)N(CCCCCCC(=O)NO)C1=O [SP-1-303]
- expression of p53 (p53; MCF7): gradual increase
- expression of p53 (p53; MDA-MB-231): no significant change
- EC50 (HCC-1937 (TNB) cells): 2480 nM
- EC50 (HCC-1937 (TNB) cells; Homo sapiens, HCC1937, 48 h): 2500 nM
- EC50 (MCF7 (ER+) cells): 340 ± 122 nM
- EC50 (T47D (ER+) cells): 321 ± 27 nM
- EC50 (T47D (ER+) cells; Homo sapiens, T47D, 48 h): 320 nM
- EC50 [1]: 1200 to 2500 nM
- inhibition of ER+ BC cell growth compared to ER- TNBC cell growth [2]: 4-8 fold
- potency in ER+ cell lines relative to SAHA ([2]; more potent than SAHA): 10 fold
- EC50 ([2]; range over MCF-7 and T47D cells, read-out: effective growth inhibition concentrations (EC50)): 320 to 340 nM
- acetylation of α-tubulin (acetylated α-tubulin): gradually increased
- ER-α expression (ER-α): gradual reduction
- IC50 (HDAC4): > 20000 nM
